Laboratory results from US20250163104A1, “MACROCYCLIC IMMUNOMODULATORS” (priority 2021, published 2025).
pIC50: −log10 of the molar value. Where a SMILES comes first, the peptide text is derived from it. Bridges are numbered along the chain shown (N, C = ends). [ ]: non-standard residue; d: D form. The star is where a group is joined. Phg(4-Ph) = N[C@H](C(=O)O)c1ccc(-c2ccccc2)cc1; Bip = N[C@@H](Cc1ccc(-c2ccccc2)cc1)C(=O)O; Cha = N[C@@H](CC1CCCCC1)C(=O)O; Cit = NC(=O)NCCC[C@H](N)C(=O)O; Ahp(2) = CCCCC[C@H](N)C(=O)O; Carboxymethyl = O=C(O)C*; Orn = NCCC[C@H](N)C(=O)O; Dab = NCC[C@H](N)C(=O)O; Dap = NC[C@H](N)C(=O)O

The compounds below were run against T1, human PD-1 / PD-L1-Ig binding on Jurkat cell line over-expressing human PD-1 (Jurkat-PD-1) (Homo sapiens, UniProt Q15116) (assay: Jurkat-PD-1 Cell Binding High-Content Screening Assay (CBA)). Details: Jurkat-PD-1 cells, PE-labeled PD-L1-Ig 20 nM final; read-out: Jurkat HPD1_PDL1 IC50.
T1 construct: expressed in transfected cells; host or cells: Jurkat
T1 sequence (Q15116 25-288): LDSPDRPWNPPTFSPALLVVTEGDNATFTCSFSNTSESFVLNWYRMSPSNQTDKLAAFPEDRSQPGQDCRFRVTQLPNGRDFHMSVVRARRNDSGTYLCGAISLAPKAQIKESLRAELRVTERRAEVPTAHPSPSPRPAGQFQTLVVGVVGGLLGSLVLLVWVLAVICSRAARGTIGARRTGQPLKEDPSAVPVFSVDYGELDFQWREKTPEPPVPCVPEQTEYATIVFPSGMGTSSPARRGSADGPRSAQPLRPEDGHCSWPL
Assay type: cell-based
Description: Example 3. Jurkat-PD-1 Cell Binding High-Content Screening Assay (CBA)
Jurkat-PD-1 Cell Binding High-Content Screening Assay (CBA). Phycoerythrin (PE) was covalently linked to the Ig epitope tag of human PD-L1-Ig and fluorescently-labeled PD-L1-Ig was used for binding studies with a Jurkat cell line over-expressing human PD-1 (Jurkat-PD-1). Briefly, 8×10^3 Jurkat-hPD-1 cells were seeded into 384 well plates in 20 μl of DMEM supplemented with 10% fetal calf serum. 100 nL of compound was added to cells followed by incubation at 37° C. for 2 h. Then, 5 μl of PE-labeled PD-L1-Ig (20 nM final), diluted in DMEM supplemented with 10% fetal calf serum. After 1 hour incubation, cells were fixed with 4% paraformaldehyde in dPBS containing 10 μg/ml Hoechst 33342 and then washed 3x in 100 μl dPBS. Data was collected and processed using a Cell Insight NXT High Content Imager and associated software.

SMILES	pIC50
Cc1cccc(C[C@@H]2NC(=O)[C@H](CC(=O)O)NC(=O)[C@H](Cc3ccc(OCC(=O)O)cc3)NC(=O)[C@H](Cc3ccncc3)NC(=O)CSC[C@@H](C(=O)N[C@@H](CCN)C(N)=O)NC(=O)[C@H](CO)NC(=O)[C@H](C(C)(C)O)NC(=O)[C@H](CC3CCCCC3)NC(=O)[C@H](CCN)NC(=O)[C@@H](CC(C)C)NC(=O)C(C3CCNCC3)NC(=O)[C@H](Cc3ccc(OCC(=O)O)cc3)NC(=O)[C@H](Cc3ccc(-c4ccccc4)cc3)NC(=O)[C@H](Cc3ccc(OCC(=O)O)cc3)NC2=O)c1 (mixture of isomers) [Compound 2084]	6.68
CCCCC[C@@H]1NC(=O)[C@H](C(C)C)NC(=O)[C@@H](Cc2ccccc2)NC(=O)[C@H](CC(=O)O)NC(=O)[C@H](CCCNC(=N)N)NC(=O)[C@H](c2ccc(-c3ccccc3)cc2)NC(=O)[C@H](C(C)C)NC(=O)[C@H](Cc2c[nH]c3ccccc23)NC(=O)[C@H](CC(=O)O)NC(=O)[C@H](Cc2ccc(O)cc2)NC(=O)[C@H](Cc2ccccc2)NC(=O)CSC[C@@H](C(=O)NCC(N)=O)NC(=O)[C@H](CO)NC(=O)[C@H](C(C)C)NC1=O [Compound 1000] ({CH2CO}-FYDWV[Phg(4-Ph)]RD[dF]V[Ahp(2)]VSCG-NH2; thioether N-14)	6.60
CC(C)C[C@@H]1NC(=O)[C@H](CCN)NC(=O)[C@@H](CC(C)C)NC(=O)[C@H](C)NC(=O)[C@H](CCCNC(=N)N)NC(=O)[C@H](Cc2ccc(-c3ccccc3)cc2)NC(=O)[C@H](C(C)C)NC(=O)[C@H](Cc2c[nH]c3ccccc23)NC(=O)[C@H](CC(=O)O)NC(=O)[C@H](Cc2ccc(O)cc2)NC(=O)[C@H](CC(N)=O)NC(=O)CSC[C@@H](C(=O)N[C@@H](C)C(N)=O)NC(=O)[C@H]([C@@H](C)O)NC(=O)[C@H](C(C)C)NC1=O [Compound 1001] ({CH2CO}-NYDWV[Bip]RA[dL][Dab]LVTCA-NH2; thioether N-14)	6.85
COC[C@@H]1NC(=O)[C@H](Cc2c[nH]c3ccccc23)NC(=O)[C@H](CC(=O)O)NC(=O)[C@H](Cc2ccc(OCC(=O)O)cc2)NC(=O)[C@H](CN)NC(=O)CSC[C@@H](C(=O)N[C@@H](C)C(N)=O)NC(=O)[C@H]([C@@H](C)O)NC(=O)[C@H](C(C)C)NC(=O)[C@H](CC2CCCCC2)NC(=O)[C@H](CCN)NC(=O)[C@@H](CC(C)C)NC(=O)[C@H](CCCN)NC(=O)[C@H](CCCNC(N)=O)NC(=O)[C@H](Cc2ccc(-c3ccccc3)cc2)NC1=O [Compound 1002] ({CH2CO}-[Dap]Y(Carboxymethyl)DWS(Me)[Bip][Cit][Orn][dL][Dab][Cha]VTCA-NH2; thioether N-14)	7.76
CCCCC[C@@H]1NC(=O)[C@H](C(C)C)NC(=O)[C@H](Cc2ccccc2)NC(=O)[C@H](CC(=O)O)NC(=O)[C@H](CCCNC(=N)N)NC(=O)[C@H](Cc2ccc(-c3ccccc3)cc2)NC(=O)[C@H](C(C)C)NC(=O)[C@H](Cc2c[nH]c3ccccc23)NC(=O)[C@H](CC(=O)O)NC(=O)[C@H](Cc2ccc(O)cc2)NC(=O)[C@H](Cc2ccccc2)NC(=O)CSC[C@@H](C(=O)NCC(N)=O)NC(=O)[C@H](CO)NC(=O)[C@H](C(C)C)NC1=O [Compound 1003] ({CH2CO}-FYDWV[Bip]RDFV[Ahp(2)]VSCG-NH2; thioether N-14)	6.21
CC(C)C[C@@H]1NC(=O)[C@H](CCN)NC(=O)[C@@H](CC(C)C)NC(=O)[C@H](CCN)NC(=O)[C@H](CCCNC(=N)N)NC(=O)[C@H](Cc2ccc(-c3ccccc3)cc2)NC(=O)[C@H](C(C)C)NC(=O)[C@H](Cc2c[nH]c3ccccc23)NC(=O)[C@H](CC(=O)O)NC(=O)[C@H](Cc2ccc(O)cc2)NC(=O)[C@H](CC(N)=O)NC(=O)CSC[C@@H](C(=O)N[C@@H](C)C(N)=O)NC(=O)[C@H]([C@@H](C)O)NC(=O)[C@H](C(C)C)NC1=O [Compound 1004] ({CH2CO}-NYDWV[Bip]R[Dab][dL][Dab]LVTCA-NH2; thioether N-14)	7.27
